Values after ≈ are worked out from the molar mass of the structure shown.
How the values were obtained:
[1] = target: SARS‐CoV‐2 RdRp complex (nsp12, nsp7, nsp8) (Severe acute respiratory syndrome coronavirus 2, UniProt P0DTD1); test: Fluorescence-based RdRp polymerase assay (SYBR Green I RNA extension); type: biochemical; details: for remaining activity at 10 µM: 50 min, read-out: residual activity (RA) of the SARS‐CoV‐2 RdRp complex; for residual activity (RA) of the SARS‐CoV‐2 RdRp complex: 10 μM screening, AUC with compound / AUC of non-inhibited reaction x 100
[2] = test system: SARS‐CoV‐2; details: Severe acute respiratory syndrome coronavirus 2, Calu-3, 72 h
Procedure: (§1) Briefly, two‐fold fold serial dilutions of compounds were added in triplicate in a 384‐well plate with 15,000 Calu‐3 cells in DMEM medium with 2 % FBS, 100 U of penicillin/ml and 100 μg of streptomycin/ml (all Merck). After 1 h incubation SARS‐CoV‐2 was added at multiplicity of infection 0.01. Following three days incubation at 37 °C in 5 % CO2 the cell viability was determined by addition of XTT solution (Sigma‐Aldrich) for 4 h and the absorbance was measured using EnVision plate reader (Perkin Elmer). Drug concentrations required to reduce viral cytopathic effect by 50 % (EC50) were calculated using nonlinear regression from plots of percentage cell viability versus log10 drug concentration using GraphPad Prism v.9.0.0 (GraphPad Software). Cytotoxicity was evaluated by incubating the same two‐fold serial dilutions of each compound with Calu‐3 cells as above but without virus. Following three days of incubation at 37 °C in 5 % CO2, the cell viability was determined by the addition of XTT solution as above. The compound concentrations resulting in a 50 % reduction of absorbance (CC50) were calculated from plots of the percentage of absorbance versus log10 drug concentration as above.

[3] = in vitro; details: human
Procedure: as §1

[4] = Kinetic solubility test in enzymatic assay medium; type: physicochemical; details: aqueous HEPES buffer with 5 % DMSO, pH 8, aqueous with cosolvent or surfactant or cyclodextrin, kinetic from dmso stock
Procedure: Kinetic solubility tests were performed in the medium used for the enzymatic assay–aqueous solution of HEPES buffer with 5 % DMSO. […] This poor aqueous solubility represents a big hurdle in the development of potential antivirals and the improvement of solubility will be considered in further structural optimization efforts of this class of compounds.

[5] = test system: SARS‐CoV‐2; details: cited from earlier work

Compound | remaining activity at 10 µM [1] [%] | also measured
O=C(Nc1cccc([N+](=O)[O-])c1)Nc1ccc(Cl)c(C(F)(F)F)c1 [Compound 29] | 58 | 
O=C(Nc1cccc([N+](=O)[O-])c1)NC1CC1 [Compound 40] | 100 | 
COC(=O)c1cc(NC(=O)Nc2cc(C(F)(F)F)cc(C(F)(F)F)c2)cc(C(=O)OC)c1 [Compound 11, Dimethyl 5‐(3‐(3,5‐Bis(trifluoromethyl)phenyl)ureido)isophthalate] | 65 | EC50 [2]: > 5 µM; CC50 at 3 days [3]: 5.1 µM
O=C(Nc1ccc(C(F)(F)F)cc1)Nc1cccc([N+](=O)[O-])c1 [Compound 32] | 100 | 
COC(=O)c1cc(NC(=O)Nc2cccc(F)c2)cc(C(=O)OC)c1 [Compound 26] | 100 | 
COC(=O)c1cc(NC(=O)Nc2ccc(C)cc2)cc(C(=O)OC)c1 [Compound 25] | 100 | 
O=C(Nc1ccc(Cl)cc1)Nc1cccc([N+](=O)[O-])c1 [Compound 33] | 100 | 
O=C(Nc1cc(Cl)cc(Cl)c1)c1nc2ccc(C(F)(F)F)cc2[nH]1 [Compound 58, N‐(3,5‐Dichlorophenyl)‐6‐(Trifluoromethyl)‐1H‐Benzo[d]imidazole‐2‐Carboxamide] | 100 | 
O=C(Nc1ccc([N+](=O)[O-])cc1)Nc1cc(Cl)cc(Cl)c1 [Compound 41] | 40 | 
COC(=O)c1cc(NC(=O)Nc2cccc(C#N)c2)cc(C(=O)OC)c1 [Compound 6, Dimethyl 5‐(3‐(3‐Cyanophenyl)ureido)isophthalate] | 100 | 
3,4‐Dichloro‐N‐(6‐(Trifluoromethyl)‐1H‐Benzo[d]imidazol‐2‐yl)benzamide [Compound 57] |  | residual activity (RA) of the SARS‐CoV‐2 RdRp complex [1]: 100%
CC(=O)Nc1cccc(NC(=O)Nc2cccc([N+](=O)[O-])c2)c1 [Compound 37] | 100 | 
COC(=O)c1cc(NC(=O)Nc2cccc(C(F)(F)F)c2)cc(C(=O)OC)c1 [Compound 9, Dimethyl 5‐(3‐(3‐Trifluoromethylphenyl)ureido)isophthalate] | 70 | EC50 [2]: > 10 µM; CC50 at 3 days [3]: 10.6 µM
CCCCNC(=O)Nc1cc(C(=O)OC)cc(C(=O)OC)c1 [Compound 5, Dimethyl 5‐(3‐Butylureido)isophthalate] | 100 | 
O=C(Nc1cccc([N+](=O)[O-])c1)Nc1cc(C(F)(F)F)cc(C(F)(F)F)c1 [Compound 19, 1‐(3,5‐Bis(trifluoromethyl)phenyl)‐3‐(3‐Nitrophenyl)urea] | 62 | EC50 [2]: > 3 µM; CC50 at 3 days [3]: 3.4 µM
FC(F)(F)c1cccc(Nc2nc3cc(Cl)c(Cl)cc3[nH]2)c1 [Compound 56, 5,6‐Dichloro‐N‐(3‐(Trifluoromethyl)phenyl)‐1H‐Benzo[d]imidazol‐2‐Amine] | 60 | EC50 [2]: > 43 µM; CC50 at 3 days [3]: 43 µM; solubility kinetic [4]: 7 ± 0.1 µM (≈ 2.42 µg/mL)
COC(=O)c1cc(NC(=O)Nc2ccc(S(N)(=O)=O)cc2)cc(C(=O)OC)c1 [Compound 8, Dimethyl 5‐(3‐(4‐Sulfamoylphenyl)ureido)isophthalate] | 100 | 
CNC(=O)c1cc(Oc2ccc(NC(=O)Nc3ccc(Cl)c(C(F)(F)F)c3)cc2)ccn1 [sorafenib] |  | cell infection [5]: strongly inhibited cell infection
COC(=O)c1cc(NC(=O)Nc2cc([N+](=O)[O-])cc([N+](=O)[O-])c2)cc(C(=O)OC)c1 [Compound 12, Dimethyl 5‐(3‐(3,5‐Dinitophenyl)ureido)isophthalate] | 100 | 
O=C(Cc1cc(Cl)cc(Cl)c1)Nc1ccc([N+](=O)[O-])cc1 [Compound 52, 2‐(3,5‐Dichlorophenyl)‐N‐(4‐Nitrophenyl)acetamide] | 100 | 
COc1cc(NC(=O)Nc2cccc(CNC(=O)O[C@H]3CCOC3)c2)ccc1-c1cnco1 [merimepodib, reference compound] | 100 | viral replication ([5]; in combination with remdesivir): completely suppress viral replication
O=C(Nc1ccc(C(=O)O)cc1)Nc1cccc([N+](=O)[O-])c1 [Compound 34] | 100 | 
1‐(3,5‐Dichlorophenyl)‐3‐(3‐(Trifluoromethyl)phenyl)guanidine Hydrochloride [Compound 54] |  | residual activity (RA) of the SARS‐CoV‐2 RdRp complex [1]: 100%
COC(=O)c1cc(NC(=O)Nc2ccc(C#N)cc2)cc(C(=O)OC)c1 [Compound 7, Dimethyl 5‐(3‐(4‐Cyanophenyl)ureido)isophthalate] | 100 | 
COC(=O)c1cc(NC(=O)Nc2cccc(C(=O)O)c2)cc(C(=O)OC)c1 [Compound 13, 3‐(3‐(3,5‐Bis(methoxycarbonyl)phenyl)ureido)benzoic Acid] | 100 | 

Compound | remaining activity at 10 µM [1] [%] | also measured
O=C(Nc1cccc([N+](=O)[O-])c1)Nc1ccccc1Cc1ccccc1 [Compound 31] | 78 | 
O=C(Nc1cc(Cl)cc(Cl)c1)C(=O)Nc1cccc(C(F)(F)F)c1 [Compound 53, N ^1‐(3,5‐Dichlorophenyl)‐N ^2‐(3‐(Trifluoromethyl)phenyl)oxalamide] | 100 | 
COC(=O)c1cc(NC(=O)Nc2ccccc2)cc(C(=O)OC)c1 [Compound 23] | 100 | 
COc1cc(NC(=O)Nc2cccc([N+](=O)[O-])c2)cc(OC)c1 [Compound 38] | 100 | 
COC(=O)c1ccc(C(=O)OC)c(NC(=O)Nc2cccc([N+](=O)[O-])c2)c1 [Compound 36] | 100 | 
O=C(Nc1cc(C(=O)O)cc(C(=O)O)c1)Nc1cccc([N+](=O)[O-])c1 [Compound 21, 5‐(3‐(3‐Nitrophenyl)ureido)isophthalic acid] | 100 | residual activity (RA) of the SARS‐CoV‐2 RdRp complex [1]: complete loss of activity
O=C(Nc1cc(Cl)cc(Cl)c1)Nc1nc2ccc(C(F)(F)F)cc2[nH]1 [Compound 60, 1‐(3,5‐Dichlorophenyl)‐3‐(6‐(Trifluoromethyl)‐1H‐Benzo[d]imidazol‐2‐yl)urea] | 28 | EC50 [2]: > 0.65 µM; CC50 at 3 days [3]: 0.65 µM; solubility kinetic [4]: < 2.1 µM
O=C(Nc1cccc(C(F)(F)F)c1)Nc1nc2cc(Cl)c(Cl)cc2[nH]1 [Compound 59, 1‐(5,6‐Dichloro‐1H‐Benzo[d]imidazol‐2‐yl)‐3‐(3‐(Trifluoromethyl)phenyl)urea] | 50 | EC50 [2]: ~10 µM; CC50 at 3 days [3]: 23 µM; solubility kinetic [4]: 2.53 ± 0.03 µM (≈ 0.985 µg/mL)
O=C(Cc1ccc([N+](=O)[O-])cc1)Nc1cc(Cl)cc(Cl)c1 [Compound 49, N‐(3,5‐Dichlorophenyl)‐2‐(4‐Nitrophenyl)acetamide] | 100 | 
COC(=O)c1cc(NC(=O)Nc2ccncc2)cc(C(=O)OC)c1 [Compound 14, Dimethyl 5‐(3‐(Pyridin‐4‐yl)ureido)isophthalate] | 100 | 
CCNS(=O)(=O)c1ccc(NC(=O)Nc2cccc([N+](=O)[O-])c2)cc1 [Compound 35] | 100 | 
O=C(Nc1cccc([N+](=O)[O-])c1)Nc1ccc2ccccc2c1 [Compound 30] | 73 | 
CNC(=O)c1cc(Oc2ccc(NC(=O)Nc3ccc(Cl)c(C(F)(F)F)c3)c(F)c2)ccn1 [regorafenib, reference compound] | 76 | activity in cell assays against the virus [5]: active
CCOC(=O)c1cccc(NC(=O)Nc2cc(C(=O)OC)cc(C(=O)OC)c2)c1 [Compound 10, Dimethyl 5‐(3‐(3‐(Ethoxycarbonyl)phenyl)ureido)isophthalate] | 100 | 
O=C(Nc1ccccc1)Nc1ccc(-c2ccc(C(=O)[C@@H]3CCC[C@H]3C(=O)O)cc2)cc1 [Compound A922500, A922500, reference compound] | 100 | activity in cell assays against the virus [5]: active
CC(=O)c1cccc(NC(=O)Nc2cc(C(=O)OC(C)C)cc(C(=O)OC(C)C)c2)c1 [Compound 28] | 100 | 
O=C(Nc1cccc([N+](=O)[O-])c1)Nc1cccc([N+](=O)[O-])c1 [Compound 18, 1,3‐Bis(3‐nitrophenyl)urea] | 100 | 
O=C(Nc1cccc([N+](=O)[O-])c1)Nc1cnccn1 [Compound 39] | 100 | 
O=[N+]([O-])c1cccc(NC(=S)Nc2ccc(Cl)c(C(F)(F)F)c2)c1 [Compound 43] | 77 | 
COc1ccc(NC(=O)Nc2cc(C(=O)OC(C)C)cc(C(=O)OC(C)C)c2)c(OC)c1 [Compound 27] | 100 | 
COC(=O)c1cc(NC(=O)Nc2ccc([N+](=O)[O-])cc2)cc(C(=O)OC)c1 [Compound 22] | 50 | 
O=C(Nc1ccc([N+](=O)[O-])cc1)Nc1ccccc1Cc1ccccc1 [Compound 42] | 63 | 
COC(=O)c1cc(NC(=O)Nc2cccc([N+](=O)[O-])c2)cc(C(=O)OC)c1 [Compound 17, Dimethyl 5‐(3‐(3‐Nitrophenyl)ureido)isophthalate] | 51 | 
O=[N+]([O-])c1cccc(NC(=S)Nc2ccccc2Cc2ccccc2)c1 [Compound 44] | 100 | 
COC(=O)c1cc(NC(=O)Nc2cccc([N+](=O)[O-])c2)cc(C(=O)O)c1 [Compound 20, 3‐(Methoxycarbonyl)‐5‐(3‐(3‐Nitrophenyl)ureido)benzoic Acid] | 100 | residual activity (RA) of the SARS‐CoV‐2 RdRp complex [1]: complete loss of activity

Source: publication PMC11617668, “Developing Allosteric Inhibitors of SARS‐CoV‐2 RNA‐Dependent RNA Polymerase” (Chemmedchem, 2024)
